Experimental data published in paper PMC2966118 (The Journal of Biological Chemistry, 2010).

Target: human recombinant TPC2 (hTPC2, HA-HsTPC2) (Homo sapiens, UniProt Q8NHX9)
Experiment: single-channel recording in planar lipid bilayer, open probability
Type: biochemical

human recombinant TPC2 (hTPC2, HA-HsTPC2), sequence (Q8NHX9 whole entry): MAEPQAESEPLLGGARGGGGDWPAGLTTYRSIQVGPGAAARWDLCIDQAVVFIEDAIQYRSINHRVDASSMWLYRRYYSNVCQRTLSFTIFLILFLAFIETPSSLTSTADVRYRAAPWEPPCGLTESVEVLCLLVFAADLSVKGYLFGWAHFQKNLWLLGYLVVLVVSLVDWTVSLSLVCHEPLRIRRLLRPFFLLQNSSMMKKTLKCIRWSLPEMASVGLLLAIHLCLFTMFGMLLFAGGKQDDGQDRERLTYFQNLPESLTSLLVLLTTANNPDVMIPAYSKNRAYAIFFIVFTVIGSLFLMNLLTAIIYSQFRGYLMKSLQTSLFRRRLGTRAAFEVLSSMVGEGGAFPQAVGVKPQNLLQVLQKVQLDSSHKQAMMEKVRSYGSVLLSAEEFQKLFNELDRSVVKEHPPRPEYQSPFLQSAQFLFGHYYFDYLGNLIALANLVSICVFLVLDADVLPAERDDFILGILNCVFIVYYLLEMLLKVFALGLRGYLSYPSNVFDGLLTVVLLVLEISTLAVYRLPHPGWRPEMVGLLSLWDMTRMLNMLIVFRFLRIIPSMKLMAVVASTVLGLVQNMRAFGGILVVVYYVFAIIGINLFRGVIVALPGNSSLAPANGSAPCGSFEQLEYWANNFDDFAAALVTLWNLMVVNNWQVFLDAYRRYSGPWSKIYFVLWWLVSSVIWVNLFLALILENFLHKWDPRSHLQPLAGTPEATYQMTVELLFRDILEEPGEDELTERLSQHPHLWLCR

- EC50: 500 nM
SMILES: Nc1ncnc2c1ncn2[C@@H]1O[C@H](COP(=O)(O)OP(=O)(O)OC[C@H]2O[C@@H]([n+]3cccc(C(=O)O)c3)[C@H](O)[C@@H]2O)[C@@H](O)[C@H]1OP(=O)(O)O [NAADP]
